{"source": "ChEMBL document CHEMBL1201862", "about": "“PubChem BioAssay data set” (2004)", "key": {"[1]": {"assay": "growth suppression of PTEN-null colon cells, dose response, cell-based, HCT116 PTEN knockout (AID 1047);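 further: cells exposed to compound for 60 hours before readout; potency for loss of cell viability measured by luminescence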", "type": "functional"}, "[2]": {"assay": "growth suppression of beta-catenin-knockout colon cells, dose response, cell-based, HCT116, human colon tumor (AID 1045);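 further: cells exposed to compound for 60 hours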", "type": "functional"}, "[3]": {"target": "T1, Short transient receptor potential channel 4 (Mus musculus, UniProt Q9QUQ5)", "T1 sequence (Q9QUQ5 whole entry)": "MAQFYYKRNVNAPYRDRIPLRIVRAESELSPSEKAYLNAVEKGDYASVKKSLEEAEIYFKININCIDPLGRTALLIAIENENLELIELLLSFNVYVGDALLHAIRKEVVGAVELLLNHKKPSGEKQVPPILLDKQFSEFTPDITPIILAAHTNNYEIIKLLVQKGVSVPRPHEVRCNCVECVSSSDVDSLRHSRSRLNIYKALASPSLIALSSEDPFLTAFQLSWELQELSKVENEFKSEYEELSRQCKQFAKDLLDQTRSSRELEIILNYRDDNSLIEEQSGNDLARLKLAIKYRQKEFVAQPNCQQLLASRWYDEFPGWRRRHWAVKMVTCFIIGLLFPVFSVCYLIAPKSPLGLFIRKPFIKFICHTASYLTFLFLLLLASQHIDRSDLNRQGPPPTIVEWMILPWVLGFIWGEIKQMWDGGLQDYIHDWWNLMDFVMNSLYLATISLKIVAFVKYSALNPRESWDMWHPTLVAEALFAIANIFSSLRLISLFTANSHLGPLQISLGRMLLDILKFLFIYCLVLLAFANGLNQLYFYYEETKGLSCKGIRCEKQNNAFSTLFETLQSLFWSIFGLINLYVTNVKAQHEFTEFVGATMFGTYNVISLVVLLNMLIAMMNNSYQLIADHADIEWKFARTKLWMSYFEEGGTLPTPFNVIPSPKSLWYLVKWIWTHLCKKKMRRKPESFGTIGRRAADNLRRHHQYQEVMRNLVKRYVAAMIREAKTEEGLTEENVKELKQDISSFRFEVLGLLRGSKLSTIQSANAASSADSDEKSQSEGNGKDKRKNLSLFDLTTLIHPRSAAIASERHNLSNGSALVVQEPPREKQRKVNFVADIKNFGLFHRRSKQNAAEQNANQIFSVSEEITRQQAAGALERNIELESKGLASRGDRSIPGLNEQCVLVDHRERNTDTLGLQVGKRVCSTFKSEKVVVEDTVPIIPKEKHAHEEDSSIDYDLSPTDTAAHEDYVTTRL", "assay": "mouse TRPC4 channel activators, dose response, cell-based, HEK293 TRPC4/mu-opioid, Fluo-4 calcium (AID 434937)", "type": "functional"}, "[4]": {"target": "T2, Corticotropin-releasing factor receptor 2/Corticotropin-releasing factor-binding protein (Homo sapiens, UniProt P24387+Q13324)", "T2 sequence (Q13324 whole entry)": "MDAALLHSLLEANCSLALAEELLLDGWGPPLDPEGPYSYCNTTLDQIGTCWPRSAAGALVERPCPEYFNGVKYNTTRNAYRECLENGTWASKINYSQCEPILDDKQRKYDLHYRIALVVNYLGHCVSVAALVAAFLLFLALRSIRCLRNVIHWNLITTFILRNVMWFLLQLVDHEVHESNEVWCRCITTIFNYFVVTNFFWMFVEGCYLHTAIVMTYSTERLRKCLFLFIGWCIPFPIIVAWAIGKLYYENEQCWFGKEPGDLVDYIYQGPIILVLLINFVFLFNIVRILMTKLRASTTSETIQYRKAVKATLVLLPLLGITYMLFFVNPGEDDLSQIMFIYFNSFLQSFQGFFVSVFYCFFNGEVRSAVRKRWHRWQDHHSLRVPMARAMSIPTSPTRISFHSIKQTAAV", "T2 sequence (P24387 whole entry)": "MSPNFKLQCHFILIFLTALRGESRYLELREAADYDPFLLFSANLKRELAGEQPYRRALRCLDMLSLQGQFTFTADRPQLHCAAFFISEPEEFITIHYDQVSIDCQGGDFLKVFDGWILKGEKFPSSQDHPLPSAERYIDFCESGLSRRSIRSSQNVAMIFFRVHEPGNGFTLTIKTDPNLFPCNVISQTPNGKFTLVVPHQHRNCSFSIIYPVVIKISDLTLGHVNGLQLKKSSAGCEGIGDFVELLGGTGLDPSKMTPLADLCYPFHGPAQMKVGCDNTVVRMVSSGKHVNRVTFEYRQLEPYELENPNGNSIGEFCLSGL", "assay": "activators of CRF receptor 2 with binding protein – uHTS hits, confirmation (AID 602473)", "type": "functional", "details": "read-out: EC50_Mean"}, "Nonstructural protein 1": {"target": "Nonstructural protein 1 (Influenza A virus, UniProt Q194T2)", "sequence (Q194T2 whole entry)": "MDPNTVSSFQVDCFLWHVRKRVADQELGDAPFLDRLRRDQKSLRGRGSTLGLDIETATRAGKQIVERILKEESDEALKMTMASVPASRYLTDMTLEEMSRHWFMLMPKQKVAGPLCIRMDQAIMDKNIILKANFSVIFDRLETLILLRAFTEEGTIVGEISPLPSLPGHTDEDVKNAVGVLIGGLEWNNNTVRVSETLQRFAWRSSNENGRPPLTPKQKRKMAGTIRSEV", "type": "functional, Influenza A virus (A/California/07/2009(H1N1))"}, "[5]": {"target": "T1, Short transient receptor potential channel 4", "assay": "mouse TRPC4 channel inhibitors, dose response, cell-based, HEK293 TRPC4/mu-opioid, Fluo-4 calcium (AID 434942);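 further: potency of inhibitors blocking the TRPC4 calcium response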", "type": "functional"}, "[6]": {"assay": "microbe, parasite or virus in culture", "type": "functional", "details": "Mycobacterium tuberculosis"}, "INS1": {"system": "INS1", "assay": "beta cell apoptosis inhibitors, cytokine rescue, dose response, luminescence, retest (AID 449756);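 further: cell death triggered by IL-1 beta plus TNF-alpha plus IFN-gamma mixture; protective hits raise ATP signal compared with cytokine alone wells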", "type": "functional, cell-based", "details": "Rattus norvegicus"}, "[7]": {"target": "T3, Heat shock factor protein 1 (Mus musculus, UniProt P38532)", "T3 sequence (P38532 whole entry)": "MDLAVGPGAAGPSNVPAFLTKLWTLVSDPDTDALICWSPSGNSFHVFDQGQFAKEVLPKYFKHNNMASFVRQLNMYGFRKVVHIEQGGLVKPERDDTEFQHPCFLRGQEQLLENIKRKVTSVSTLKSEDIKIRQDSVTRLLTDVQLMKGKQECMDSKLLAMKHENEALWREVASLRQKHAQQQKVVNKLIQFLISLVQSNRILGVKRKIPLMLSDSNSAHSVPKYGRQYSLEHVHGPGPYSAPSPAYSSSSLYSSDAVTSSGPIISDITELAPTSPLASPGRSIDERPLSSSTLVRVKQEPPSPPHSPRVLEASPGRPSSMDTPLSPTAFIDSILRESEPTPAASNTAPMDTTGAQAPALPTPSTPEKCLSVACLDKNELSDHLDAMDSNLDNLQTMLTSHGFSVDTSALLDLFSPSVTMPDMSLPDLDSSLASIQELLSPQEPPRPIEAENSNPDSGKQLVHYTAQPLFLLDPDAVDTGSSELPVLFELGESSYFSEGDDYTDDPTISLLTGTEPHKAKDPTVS", "assay": "HSF1 potentiators in luciferase reporter cells, confirmation, cell-based, NIH3T3, luminescence, dose retest (AID 435004);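 further: stress induced by proteasome inhibitor MG132 added 30 min after compound; actives raise luminescence as potentiators of the MG132 stress response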", "type": "functional"}, "Protein skinhead-1": {"target": "T4, Protein skinhead-1 (Caenorhabditis elegans, UniProt P34707)", "T4 sequence (P34707 whole entry)": "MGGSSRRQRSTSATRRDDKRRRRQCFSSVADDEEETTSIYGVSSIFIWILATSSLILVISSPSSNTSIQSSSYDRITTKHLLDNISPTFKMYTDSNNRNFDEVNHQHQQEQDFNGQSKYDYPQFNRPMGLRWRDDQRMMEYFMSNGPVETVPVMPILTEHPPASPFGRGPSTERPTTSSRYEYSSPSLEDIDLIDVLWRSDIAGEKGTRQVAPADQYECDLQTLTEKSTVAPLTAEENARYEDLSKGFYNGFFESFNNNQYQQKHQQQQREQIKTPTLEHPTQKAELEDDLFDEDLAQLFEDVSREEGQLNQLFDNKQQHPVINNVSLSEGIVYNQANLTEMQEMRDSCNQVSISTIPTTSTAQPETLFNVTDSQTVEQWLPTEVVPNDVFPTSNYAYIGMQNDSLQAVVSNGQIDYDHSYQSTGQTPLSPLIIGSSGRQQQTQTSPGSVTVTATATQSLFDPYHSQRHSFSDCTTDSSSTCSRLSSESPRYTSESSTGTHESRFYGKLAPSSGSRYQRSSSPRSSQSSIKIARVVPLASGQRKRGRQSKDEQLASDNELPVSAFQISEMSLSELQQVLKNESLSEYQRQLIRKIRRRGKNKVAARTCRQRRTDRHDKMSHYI", "type": "functional"}}, "note": "The source made the active and inactive calls."}
{"smiles": "O=C(C1CCCN(S(=O)(=O)c2ccc(F)cc2)C1)N(Cc1cccs1)C1CC1", "note": "(stereo not drawn)", "values": [{"measurement": "EC50", "setting": "[1]", "value": "51.6 µM (active)"}, {"measurement": "EC50", "setting": "[2]", "value": "137 µM (active)"}]}
{"smiles": "COc1cc(C2C(C#N)=C(C)N=C3C2=C(O)c2ccccc23)cc(OC)c1OC", "note": "(stereo not drawn)", "values": [{"measurement": "EC50", "setting": "[1]", "value": "16.1 µM (active)"}, {"measurement": "EC50", "setting": "[2]", "value": "21.5 µM (active)"}]}
{"smiles": "CCCCN(C)CCCNC(=O)CN1N=C(c2ccc(Cl)cc2)CCC1=O", "values": [{"measurement": "EC50", "setting": "[3]", "value": "0.596 µM (active)"}]}
{"smiles": "C#CC[N+](C)(C)CCCCCCCC", "values": [{"measurement": "EC50", "setting": "[1]", "value": "13.6 µM (active)"}, {"measurement": "EC50", "setting": "[2]", "value": "16 µM (active)"}, {"measurement": "EC50", "setting": "[4]", "value": "> 53 µM (inactive)"}]}
{"smiles": "Cc1nnc2sc(SCC(=O)Nc3cccc(Cl)c3)nn2c1=O", "values": [{"measurement": "IC50", "setting": "Nonstructural protein 1", "value": "10.4 µM (active)"}]}
{"smiles": "Cn1c(-c2ccccc2)cnc1NCc1ccc(F)cc1", "values": [{"measurement": "EC50", "setting": "[5]", "value": "1.88 µM (active)"}]}
{"smiles": "ClCc1nc2ccccc2c2ccccc12", "values": [{"measurement": "CC50", "setting": "[6]", "value": "18.6 µM (active)"}]}
{"smiles": "COc1cc(C(=O)N/N=C(\\C)c2ccccn2)cc(OC)c1OC", "values": [{"measurement": "IC50", "setting": "Nonstructural protein 1", "value": "16.9 µM (active)"}, {"measurement": "AC50", "setting": "INS1", "value": "1.94 µM (active)"}]}
{"smiles": "Cc1cc(=O)oc2c(C)c(OCC(=O)N3CCN(C(=O)C4COc5ccccc5O4)CC3)ccc12", "note": "(stereo not drawn)", "values": [{"measurement": "CC50", "setting": "[6]", "value": "> 40 µM (active)"}]}
{"smiles": "OCC1(Cc2ccccc2)CCCN(Cc2cnn(-c3ccccc3)c2)C1", "note": "(stereo not drawn)", "values": [{"measurement": "EC50", "setting": "[5]", "value": "4.22 µM (active)"}]}
{"smiles": "COc1ccccc1CNCC(c1ccccc1)c1ccccc1", "values": [{"measurement": "EC50", "setting": "[5]", "value": "4.73 µM (active)"}, {"measurement": "EC50", "setting": "[7]", "value": "> 260 µM (inactive)"}]}
{"smiles": "Cc1cccc(NC(=O)c2ccc3c(c2)C(=O)N(c2ccccc2C)C3=O)n1", "values": [{"measurement": "IC50", "setting": "Protein skinhead-1", "value": "> 100 µM (inactive)"}]}
